Reference: the NIST ThermoML archive (doi:10.1021/acs.jced.9b00381)
± gives the expanded uncertainty stated by the source.

Experiments:
[1] = Molar enthalpy of transition or fusion; settings: Crystal; DSC
[2] = Crystal; DSC

SMILES: Fc1c(I)c(F)c(I)c(F)c1I [1,3,5-trifluoro-2,4,6-triiodobenzene]
- Molar enthalpy of transition or fusion [1]: 3.23 ± 0.105 kcal/mol
- Triple point temperature [2]: 424.01 ± 1 K
